Assay results reported in patent US9023789B2, “Amylin analogs and pharmaceutical compositions thereof” (Novo Nordisk A/S, priority 2012, dated 2015).
Values after ≈ are worked out from the molar mass of the structure shown. Like-named read-outs stand apart in the source and are kept apart here. Numbered stars: 1 amine (or outer) side, 2 acyl side, 3 side chain; on linkers, the order of the positions; unused ones are H or OH. Bridge positions count the residues as written; N and C are the ends. Side chains are listed from the residue outwards. Peptide text beside a SMILES is read from it. * marks the point of attachment. C20 diacid = O=C(O)CCCCCCCCCCCCCCCCCCC(=O)*; γGlu = O=C(O)[C@H](CCC(=O)[*:2])N[*:1]

Legend:
[1] = target: T1, rat calcitonin receptor (Rattus norvegicus, UniProt P32214); test: ASSAY (VIII) binding to the rat calcitonin receptor; conditions: Table 7, read-out: rCTR bind IC50
T1 construct: expressed in transfected cells; host or cells: BHK tk'ts 13 (transient, FuGENE 6), membranes
T1 sequence (P32214 25-479 isoform P32214-2 limits assumed): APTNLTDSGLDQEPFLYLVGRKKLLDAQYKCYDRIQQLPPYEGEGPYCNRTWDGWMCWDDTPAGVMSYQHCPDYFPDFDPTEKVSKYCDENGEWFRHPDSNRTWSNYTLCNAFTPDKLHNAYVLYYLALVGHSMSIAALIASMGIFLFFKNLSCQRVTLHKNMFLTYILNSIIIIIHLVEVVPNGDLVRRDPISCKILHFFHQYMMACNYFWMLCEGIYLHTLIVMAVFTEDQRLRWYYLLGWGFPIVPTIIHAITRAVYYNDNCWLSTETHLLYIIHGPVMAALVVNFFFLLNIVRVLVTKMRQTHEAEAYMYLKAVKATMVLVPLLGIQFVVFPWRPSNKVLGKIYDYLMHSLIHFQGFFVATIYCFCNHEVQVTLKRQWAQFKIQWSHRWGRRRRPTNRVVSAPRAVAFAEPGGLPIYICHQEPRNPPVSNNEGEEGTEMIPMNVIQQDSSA
Outline: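 Cell membranes for binding came from BHK tk′ts 13 cells harvested approximately 48 hours after transient transfection with the rat receptor.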

[2] = ASSAY (IV) determination of solubility; type: physicochemical
Outline: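 Samples of polypeptide, prepared from a water stock at […] and diluted 1:1 into 100 mM buffers spanning pH 3.0 to 8.0, stood 18 hours at room temperature. Polypeptide concentration was then determined by UPLC following centrifugation.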

[3] = tested on: Sprague Dawley (SD) rats; test: ASSAY (I) efficacy testing on appetite (food intake) using an ad libitum fed rat model; type: in vivo; conditions: rat
Outline: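 Individual food consumption was logged each hour up to 7 h and again at 24 h, occasionally 48 h, with Grubbs-test outliers removed. Each 200–250 g Sprague Dawley rat, free-feeding in its home cage under reversed lighting, received a single ip, po or sc dose of 0.01–3 mg/kg at lights-off, alongside a vehicle group.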

[4] = target: T2, human amylin receptor (membranes from Amylin 3(a)/CRE-luc cells) (Homo sapiens, UniProt O60896+P30988); test: ASSAY (V) binding to the human amylin receptor (SPA, 125I-rat amylin);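 also: competition binding of cell membranes (35 ng/µL) mixed with SPA beads in 384-well plates at 40 µL total volume, read by scintillation counting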
T2 construct: expressed in transfected cells
T2 sequence (P30988 25-474): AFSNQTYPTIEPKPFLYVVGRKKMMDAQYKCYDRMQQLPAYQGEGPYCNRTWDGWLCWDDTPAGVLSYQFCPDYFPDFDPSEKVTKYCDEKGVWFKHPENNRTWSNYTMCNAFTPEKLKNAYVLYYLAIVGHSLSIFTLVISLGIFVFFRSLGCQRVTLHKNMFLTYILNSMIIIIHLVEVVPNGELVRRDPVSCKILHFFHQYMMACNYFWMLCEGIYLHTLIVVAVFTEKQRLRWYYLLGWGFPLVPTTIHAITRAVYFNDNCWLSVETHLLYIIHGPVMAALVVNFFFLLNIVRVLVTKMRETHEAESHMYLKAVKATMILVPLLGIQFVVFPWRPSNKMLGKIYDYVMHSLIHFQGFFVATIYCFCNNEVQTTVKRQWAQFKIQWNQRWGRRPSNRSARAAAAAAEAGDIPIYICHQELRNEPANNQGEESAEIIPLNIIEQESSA
T2 sequence (O60896 24-148 partner): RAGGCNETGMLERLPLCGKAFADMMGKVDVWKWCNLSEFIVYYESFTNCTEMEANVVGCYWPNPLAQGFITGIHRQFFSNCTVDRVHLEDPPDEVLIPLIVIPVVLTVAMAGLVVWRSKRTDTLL

[5] = bistrispropane buffer, pH 6.5, read-out: Solubility pH 6.5 Concentration
[6] = bistrispropane buffer, pH 7.5, read-out: Solubility pH 7.5 Concentration
[7] = bistrispropane buffer, pH 6.0, read-out: Solubility pH 6.0 Concentration
[8] = bistrispropane buffer, pH 7.0, read-out: Solubility pH 7.0 Concentration
[9] = bistrispropane buffer, pH 8.0, read-out: Solubility pH 8.0 Concentration
[10] = glycylglycine buffer, pH 3.0, read-out: Solubility pH 3.0 Concentration
[11] = glycylglycine buffer, pH 4.0, read-out: Solubility pH 4.0 Concentration
[12] = glycylglycine buffer, pH 5.0, read-out: Solubility pH 5.0 Concentration
[13] = Table 5, selectivity, hCTR bind IC50 / hAmylin-R bind IC50
[14] = Table 5a, selectivity, hCTR bind IC50 / hAmylin-R bind IC50
[15] = Table 5b, selectivity, hCTR bind IC50 / hAmylin-R bind IC50
[16] = Table 5c, selectivity, hCTR bind IC50 / hAmylin-R bind IC50
[17] = Table 7, human binding selectivity, included for comparison
[18] = Table 7a (preferred compounds), human binding selectivity, included for comparison
[19] = ratio of human calcitonin receptor binding IC50 to human amylin receptor binding IC50

| Compound | IC50 [1] [nM] | solubility at 18 h [2, 5] [µM] | solubility at 18 h [2, 6] [µM] | solubility at 18 h [2, 7] [µM] | solubility at 18 h [2, 8] [µM] | solubility at 18 h [2, 9] [µM] | solubility at 18 h [2, 10] [µM] | solubility at 18 h [2, 11] [µM] | solubility at 18 h [2, 12] [µM] | Food intake reduction 0-24 h 30 nmol/kg (%) ([3]; 0-24 h) | Food intake reduction 24-48 h 30 nmol/kg (%) ([3]; 24-48 h) | Ratio hCT/hAmylin binding [4, 13] | Ratio hCT/hAmylin binding [4, 14] | Ratio hCT/hAmylin binding [4, 15] | Ratio hCT/hAmylin binding [4, 16] | Ratio hCT/hAmylin binding [4, 17] | Ratio hCT/hAmylin binding [4, 18] | Ratio hCT/hAmylin binding [4, 19] | further results |
| --- | --- | --- | --- | --- | --- | --- | --- | --- | --- | --- | --- | --- | --- | --- | --- | --- | --- | --- | --- |
| CC[C@H](C)[C@H](NC(=O)[C@H](C)NC(=O)CNC(=O)[C@H](Cc1ccccc1)NC(=O)[C@H](CC(N)=O)NC(=O)[C@@H]1CCCN1C(=O)[C@H](CO)NC(=O)[C@H](CO)NC(=O)[C@H](Cc1c[nH]cn1)NC(=O)[C@H](CCCNC(=N)N)NC(=O)[C@H](CC(C)C)NC(=O)[C@H](Cc1ccccc1)NC(=O)[C@H](CCC(=O)O)NC(=O)[C@H](C)NC(=O)[C@H](CC(C)C)NC(=O)[C@H](CCCNC(=N)N)NC(=O)[C@H](CCC(N)=O)NC(=O)[C@@H](NC(=O)[C@H](C)NC(=O)[C@@H]1CSSC[C@H](NC(=O)[C@@H](N)CCCCNC(=O)CC[C@H](NC(=O)CC[C@H](NC(=O)CCCCCCCCCCCCCCCCCCC(=O)O)C(=O)O)C(=O)O)C(=O)N[C@@H](CC(N)=O)C(=O)N[C@@H]([C@@H](C)O)C(=O)N[C@@H](C)C(=O)N[C@@H]([C@@H](C)O)C(=O)N1)[C@@H](C)O)C(=O)N1CCC[C@H]1C(=O)N[C@@H](CO)C(=O)N[C@@H](CO)C(=O)N[C@H](C(=O)N[C@@H](CC(N)=O)C(=O)N[C@H](C(=O)NCC(=O)N[C@@H](CCCNC(=N)N)C(=O)N[C@@H](CC(N)=O)C(=O)N[C@H](C(=O)N[C@@H](Cc1ccc(O)cc1)C(N)=O)[C@@H](C)O)C(C)C)[C@@H](C)O [Example 88] (H-K([γGlu-γGlu-C20 diacid])CNTATCATQRLAEFLRHSSPNFGAIPSSTNVGRNTY-NH2; disulfide 2-7) | 196 | ≥ 200 | 113 (≈ 519 µg/mL) | ≥ 200 | 162 (≈ 744 µg/mL) | 108 (≈ 496 µg/mL) | ≥ 200 | ≥ 200 | ≥ 200 | 31 | 15 | 46.5 | 46.5 | 46.5 | 46.5 | 46.5 | 46.5 | 46.5 |  |
| CC[C@H](C)[C@H](NC(=O)[C@H](C)NC(=O)CNC(=O)[C@H](Cc1ccccc1)NC(=O)[C@H](CC(N)=O)NC(=O)[C@@H]1CCCN1C(=O)[C@H](CO)NC(=O)[C@H](CO)NC(=O)[C@H](Cc1c[nH]cn1)NC(=O)[C@H](CCCNC(=N)N)NC(=O)[C@H](CC(C)C)NC(=O)[C@H](Cc1ccccc1)NC(=O)[C@H](Cc1c[nH]cn1)NC(=O)[C@H](C)NC(=O)[C@H](CC(C)C)NC(=O)[C@H](CCCNC(=N)N)NC(=O)[C@H](CCC(N)=O)NC(=O)[C@@H](NC(=O)[C@H](C)NC(=O)[C@@H]1CSSC[C@H](NC(=O)[C@@H](N)CCCCNC(=O)CC[C@H](NC(=O)CCCCCCCCCCCCCCCCCCC(=O)O)C(=O)O)C(=O)N[C@@H](CC(N)=O)C(=O)N[C@@H]([C@@H](C)O)C(=O)N[C@@H](C)C(=O)N[C@@H]([C@@H](C)O)C(=O)N1)[C@@H](C)O)C(=O)N1CCC[C@H]1C(=O)N[C@@H](CO)C(=O)N[C@@H](CO)C(=O)N[C@H](C(=O)N[C@@H](CC(N)=O)C(=O)N[C@H](C(=O)NCC(=O)N[C@@H](CCCNC(=N)N)C(=O)N[C@@H](CC(N)=O)C(=O)N[C@H](C(=O)N[C@@H](Cc1ccc(O)cc1)C(N)=O)[C@@H](C)O)C(C)C)[C@@H](C)O [Example 85] (H-K([γGlu-C20 diacid])CNTATCATQRLAHFLRHSSPNFGAIPSSTNVGRNTY-NH2; disulfide 2-7 (inferred); N-terminus assumed) | 146 | ≥ 200 | ≥ 200 | ≥ 200 | ≥ 200 | ≥ 200 | ≥ 200 | ≥ 200 | ≥ 200 | 30 | 6 | 91.8 | 91.8 | 91.8 | 91.8 | 91.8 | 91.8 | 91.8 | IC50 ([4]; Table 4, read-out: hAmylin-R bind IC50): 0.876 nM |
| CC[C@H](C)[C@H](NC(=O)[C@H](C)NC(=O)CNC(=O)[C@H](Cc1ccccc1)NC(=O)[C@H](CC(N)=O)NC(=O)[C@@H]1CCCN1C(=O)[C@H](CO)NC(=O)[C@H](CO)NC(=O)[C@H](Cc1c[nH]cn1)NC(=O)[C@H](CCCNC(=N)N)NC(=O)[C@H](CC(C)C)NC(=O)[C@H](Cc1ccccc1)NC(=O)[C@H](CC(=O)O)NC(=O)[C@H](C)NC(=O)[C@H](CC(C)C)NC(=O)[C@H](CCCNC(=N)N)NC(=O)[C@H](CCC(N)=O)NC(=O)[C@@H](NC(=O)[C@H](C)NC(=O)[C@@H]1CSSC[C@H](NC(=O)[C@@H](N)CCCCNC(=O)CC[C@H](NC(=O)CC[C@H](NC(=O)CCCCCCCCCCCCCCCCCCC(=O)O)C(=O)O)C(=O)O)C(=O)N[C@@H](CC(N)=O)C(=O)N[C@@H]([C@@H](C)O)C(=O)N[C@@H](C)C(=O)N[C@@H]([C@@H](C)O)C(=O)N1)[C@@H](C)O)C(=O)N1CCC[C@H]1C(=O)N[C@@H](CO)C(=O)N[C@@H](CO)C(=O)N[C@H](C(=O)N[C@@H](CC(N)=O)C(=O)N[C@H](C(=O)NCC(=O)N[C@@H](CO)C(=O)N[C@@H](CC(=O)O)C(=O)N[C@H](C(=O)N[C@@H](Cc1ccc(O)cc1)C(N)=O)[C@@H](C)O)C(C)C)[C@@H](C)O [Example 2] (H-K([γGlu-γGlu-C20 diacid])CNTATCATQRLADFLRHSSPNFGAIPSSTNVGSDTY-NH2; disulfide 2-7; N-terminus assumed) | 108 | 190 (≈ 857 µg/mL) | ≥ 200 | ≥ 200 | ≥ 200 | ≥ 200 | ≥ 200 | ≥ 200 | ≥ 200 | 72 | 62 | 47.5 | 47.5 | 47.5 | 47.5 | 47.5 | 47.5 | 47.5 | Food intake reduction 0-24 h 3 nmol/kg (%) ([3]; 3 nmol/kg, 0-24 h): 39%; Food intake reduction 24-48 h 3 nmol/kg (%) ([3]; 3 nmol/kg, 24-48 h): 10% |
